Assay results: patent US20260256799A1, “INHIBITORS FOR TREATING SOLID TUMOURS” (UNIVERSITY OF SOUTHAMPTON, priority 2023, published 2026)

Test system: HNSCC and NSCLC CAF
Test: Established myoCAF phenotype of CAF cultured ex vivo
Format: cell-based, human
Description: Human NSCLC cell line H441, HNSCC SCC25, murine cancer cell line TC-1 (lung), MC38 (colon) and human fetal foreskin fibroblasts HFFF2 were purchased from European Collection of Cell Cultures (Public Health England) or ATCC; HNSCC 5PT [32] were provided by l. Mackenzie (Queen Mary University of London, UK). HEK-293T cells and IMR90 lung fibroblasts were provided by Jesus Gil (Imperial College, London, UK). SCC25 were grown in Ham's F12:DMEM (1:1 ratio) medium with 10% FBS (Calbiochem) and 292 μg/ml L-Glutamine. 5PT were cultured in keratinocyte growth medium. HEK-293T, H441, MC38, HFFF2, IMR90 and primary fibroblasts were grown in DMEM supplemented with 10% FBS and 292 μg/ml L-Glutamine. Primary fibroblasts were isolated as previously used at early passage (p1-10). C57BL/6 murine normal lung and colon fibroblasts (MLF and MCF respectively) were grown at 3% oxygen. TC-1 were cultured in RPMI supplemented with 10% FBS and 292 μg/ml L-Glutamine. All cell cultures were routinely tested for mycoplasma contamination. All cells were cultured using standard cell culture plates/flasks (Corning). HFFF2 or IMR90 cells were transfected with 25 μM On-Target pool siRNA (Thermo Scientific/Dharmacon) using Oligofectamine reagent (Life Technologies) as described. Stable knockdown was performed using retro/lentiviral mediated transduction of shRNA plasmids, as previously described followed by cell selection using 1 μg/ml puromycin for 5-7 days. NOX4-inducible HEK-293 cells (kindly provided by Vincent Jaquet) were treated with 1 μg/ml doxycycline. Wild type and mutant (C2991L) ATM over-expression was carried out transfecting HFFF2 with Viafect (Promega) according to manufacturer's instructions and selected for 10 days with 4 mg/ml G418. p-Retrosuper-shATM (ATM #1:912) and pCDNA3.1-Flag-mut-ATM (C2991L; pTP1625 clone) were kindly provided by Yosef Shiloh and Tanya Paull respectively. pLKO.1 murine shATM (TRCN0000012643) and pCDNA3.1-Flag-wt-ATM (31985) were purchased from Sigma and Addgene respectively. 2 ng/ml TGF-3 (TGF-β1; R&D Systems; for 3 days) was used to induce myofibroblast differentiation. 10 ng/ml IL-1pR (R&D Systems) for 72 hours was used to induce iCAF differentiation. […] All the inhibitors were resuspended in DMSO. To trigger DDR activation and/or cell stress HFFF2 were either irradiated with 2-100Gy using 350Kv X-Ray Irradiation System (Faxitron), or treated with 100 ng/ml Neocarzinostatin for 2 hours (NCS; Sigma), with 2-10 mM H2O2(Fisher Scientific) or with 5 μg/ml Cisplatin (Sandoz) for 30 minutes.
Cells were lysed in ice-cold RIPA buffer [1% NP40, 150 mM NaCl, 25 mM Tris-HCl pH 7.5, 0.1% SDS, 1% Na-Deoxycolate, 1 mM EGTA, 1 mM EDTA, 1 mM Na-orthovanadate, 10 mM Na-fluoride, 2.5 mM Na-pyrophosphate, 1 mM p glycerophosphate+freshly added 1 mM PMSF, 20 mM N-Ethylmaleimide (NEM), 10 ng/ml Microcystin-LR, 0.12 μM Okadaic acid and phosphatase and protease inhibitor cocktails; all from Sigma]. Protein extracts were then centrifuged and supernatants quantified using Dc-Bio-Rad protein assay kit (Bio-Rad laboratories) as previously. For nuclear-cytoplasmic protein extraction, the inventors used NE-PER Reagents according to manufacturer's instructions (Thermofisher). Equal amounts of protein were electrophoresed either in reducing (+Dithiothreitol, DTT) or in non-reducing conditions in 3-8% or 4-12% SDS-PAGE gels and electro blotted as previously.

CN(C)CCCOc1ccc(-c2ccc3ncc4c(c3c2)n(C2CCOCC2)c(=O)n4C)cn1 [AZD0156]
myoCAF differentiation (reversal) (CAF E treated with AZD0156 for 5 days, Q-RT-PCR): reversed
reversal of myoCAF differentiation after AZD0156 treatment was discontinued (CAF E, 5 days AZD0156 then further 5 days without AZD0156): maintained
